Where no end group is shown, it is not given here.
How the values were obtained:
DRG neurons = assay: In vivo binding of GST-peptide-fusion proteins to DRG neurons after subarachnoid injection; design: species or system mouse; settings: L5 DRG; for NF-L-positive neurons positive for GST fusion protein: 5 μg into subarachnoid space, C57BL/6 mice, 1 h; for mean diameter of cells positive for GST fusion protein: in vivo, mean±SD
Text: To evaluate their binding to DRG cells in vivo, GST fusion proteins of three selected peptides were synthesized using the pGEX4T-1 vector kit (Amersham, Piscataway, N.J.) according to the manufacturer's instructions. Briefly, oligonucleotides for C-DRG1-C, C-DRG2-C, and C-DRG3-C were synthesized cloned into the pGEX4T-1 vector, and transformed in E. coli. The synthesized GST-fusion proteins were pull down by Glutathione Sepharose 4B (Amersham), and purified. The purities and reactions to anti-GST antibodies (Amersham) were confirmed by gel-electrophoresis stained by Coomassie Blue and anti-GST immunoblotting.
Under intraperitoneal pentobarbiturate anesthesia (0.1 mg/g BW), 10 μl (500 μg/ml) of purified GST-fusion proteins (GST-DRG1, GST-DRG2, GST-DRG3, or GST alone) were injected into the subarachnoid space of 8-week-old female C57BL/6 mice (n=3 each). After 1 h, the mice were sacrificed and transcardially perfused with cold saline followed by 4% paraformaldehyde, 0.5% glutaraldehyde and 0.3% picric acid in 0.1 M PBS (pH 7.4). The L5 DRGs were then isolated and cut sectioned (10 μm) for fluorescence immunohistochemistry. After blocking with 10% horse serum, the sections were incubated overnight at 4° C. with goat anti-GST antibody (Amersham) diluted 1:1000 and rabbit anti-neurofilament L (NF-L, non-phosphorylated form, Chemicon, Temecula, Calif.) antibody diluted 1:100 in PBST. The sections were incubated for 1 h with Alexa Fluor 488-labeled anti-goat IgG and Alexa Fluor 555-labeled anti-rabbit IgG (Molecular Probes, Eugene, Oreg.) at room temperature, mounted with VECTASHIELD mounting medium containing 4′,6-diamidino-2-phenylindole (DAPI) (Vector Laboratories Inc., Burlingame, Calif.), and observed under a fluorescence microscope (Axioplan 2 imaging and Axiocam, Carl Zeiss, Jena, Germany). For quantitative analysis, the inventors took pictures of randomly selected fields and measured diameters (long and short) of the cells positive for GST, NF-L and DAPI. The mean cell size was calculated as the mean of the long and short diameters, and cell-size differences were evaluated in the three different groups.

isolated DRG neurons = assay: Double staining of isolated DRG neurons after incubation with DRG-p1 and GST-DRG3; format: cell-based, mouse; settings: antibodies against phage and GST
Text: The Ph.D.-C7C Phage display Peptide Library kit expresses random 7-amino acid peptides fused to the minor coat protein (pIII) of the M13 phage. By sequence analysis, only 113 phage plaques were represented in the bound peptide, consistent with a very efficient selection process (Table 2). The final binding studies allowed identification of three phages (DRG1, DRG2, or DRG3) that occurred repeatedly. In specific embodiments of the invention, the efficient identification of these clones was the result of multiple rounds of positive and negative selection using the biopanning protocol (Liang et al., 2006), although in specific cases some of the other 84 clones (Table 2) are true DRG-binding peptide-phages. […] Moreover, the size specificity of target neurons for individual peptides was confirmed by in vivo binding experiments: GST-DRG1 and GST-DRG3 recognized small-sized neurons, and GST-DRG2 recognized large-sized neurons. Since both DRG1 and DRG3 recognized small sized neurons, two peptide ligands might bind to the same cell populations. Therefore, double staining was performed of isolated DRG neurons after the incubation with DRG-p1 and GST-DRG3 by antibodies against phage and GST, respectively. Double positive staining was obtained in 51% of DRG-p1-positive neurons, and was in 71% of GST-DRG3-positive neurons, respectively. […]

**Q.** Which results are given for “GST-DRG2: GST fusion protein of peptide C-DRG2-C made with pGEX4T-1 in E. coli (CDGPWRKMC; cysteine pairing not given here; also: GST fusion protein, GST not in chain)”?
**A.** NF-L-positive neurons positive for GST fusion protein (DRG neurons): 25%; mean diameter of cells positive for GST fusion protein (DRG neurons): 33.5±7.4 μm

**Q.** For “GST-DRG3: GST fusion protein of peptide C-DRG3-C made with pGEX4T-1 in E. coli (CFGQKASSC; cysteine pairing not given here; also: GST fusion protein, GST not in chain)”, which “double positive staining (DRG-p1 and GST-DRG3) as share of neurons positive for the named ligand” value (isolated DRG neurons) is on record?
**A.** 71%

**Q.** What about the “NF-L-positive neurons positive for GST fusion protein” value (DRG neurons) of the same substance?
**A.** 14%

**Q.** What about the “mean diameter of cells positive for GST fusion protein” value (DRG neurons) of the same substance?
**A.** 22.7±6.6 μm

**Q.** How did the “NF-L-positive neurons positive for GST fusion protein” value (DRG neurons) turn out when “GST-DRG1: GST fusion protein of peptide C-DRG1-C made with pGEX4T-1 in E. coli (CSPGARAFC; cysteine pairing not given here; also: GST fusion protein, GST not in chain)” was run?
**A.** 39%

**Q.** What about the “mean diameter of cells positive for GST fusion protein” value (DRG neurons) of the same substance?
**A.** 21.6±5.2 μm

Reference: patent US8859728B2, “Peptides that target dorsal root ganglion neurons” (Baylor College of Medicine, priority 2008, dated 2014)
